Experimental data from patent US11096985B2, “Antimicrobial peptides, their variants and uses” (priority 2015, dated 2021).
Where a SMILES comes first, the peptide text is derived from it. [ ]: non-standard residue; d: D form.

How the values were obtained:
[1] = tested on: clinical strains of Escherichia coli; experiment: MIC, clinical strains of E. coli; assay type: cell-based; design: unit: μg/ml; conditions: microdilution, Muller Hinton broth-cation adjusted, 0.02% BSA, 0.2% acetic acid
Summary of the method: (§1)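 Broth microdilution in Mueller Hinton broth, inoculum adjusted to 5.0×10^5 cfu/ml, peptide tested at 0.125 to 128 μg/ml and incubated at 37° C. for 20 to 24 hours. MIC was the lowest concentration with no visible growth. Yeasts were tested in potato dextrose broth.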

[2] = tested on: clinical strains of Klebsiella pneumoniae; experiment: MIC, clinical strains of K. pneumoniae; assay type: cell-based; design: unit: μg/ml; conditions: microdilution, Muller Hinton broth-cation adjusted, 0.02% BSA, 0.2% acetic acid
Summary of the method: as §1

[3] = tested on: clinical strains of Pseudomonas aeruginosa; experiment: MIC, clinical strains of P. aeruginosa; assay type: cell-based; design: unit: μg/ml; conditions: microdilution, Muller Hinton broth-cation adjusted, 0.02% BSA, 0.2% acetic acid
Summary of the method: as §1

[4] = tested on: clinical strains of Serratia marcescens; experiment: MIC, clinical strains of Serratia marcescens; assay type: cell-based; design: unit: µg/mL; conditions: microdilution, Muller Hinton broth-cation adjusted, 0.02% BSA, 0.2% acetic acid
Summary of the method: as §1

[5] = tested on: clinical strains of Proteus mirabilis; experiment: MIC, clinical strains of Proteus mirabilis; assay type: cell-based; design: unit: µg/mL; conditions: microdilution, Muller Hinton broth-cation adjusted, 0.02% BSA, 0.2% acetic acid
Summary of the method: as §1

[6] = tested on: clinical strains of Enterobacter cloacae; experiment: MIC, clinical strains of Enterobacter cloacae; assay type: cell-based; design: unit: μg/ml; conditions: microdilution, Muller Hinton broth-cation adjusted, 0.02% BSA, 0.2% acetic acid
Summary of the method: as §1

[7] = tested on: clinical strains of Staphylococcus aureus; experiment: MIC, clinical strains of S. aureus; assay type: cell-based; design: unit: μg/ml; conditions: microdilution, Muller Hinton broth-cation adjusted, 0.02% BSA, 0.2% acetic acid
Summary of the method: as §1

[8] = tested on: clinical strains of Streptococcus pneumoniae; experiment: MIC, clinical strains of Streptococcus pneumoniae; assay type: cell-based; design: unit: µg/mL; conditions: microdilution, Muller Hinton broth-cation adjusted, 0.02% BSA, 0.2% acetic acid
Summary of the method: as §1

[9] = tested on: clinical strains of Candida albicans; experiment: MIC, clinical yeast strains, Candida albicans; assay type: cell-based; design: unit: μg/ml
Summary of the method: as §1

[10] = tested on: clinical strains of C. glabrata; experiment: MIC, clinical yeast strains, C. glabrata; assay type: cell-based, Candida glabrata; design: unit: μg/ml
Summary of the method: as §1

[11] = tested on: clinical strains of C. parapsilosis; experiment: MIC, clinical yeast strains, C. parapsilosis; assay type: cell-based, Candida parapsilosis; design: unit: μg/ml
Summary of the method: as §1

[12] = tested on: clinical strains of C. quillermondiae; experiment: MIC, clinical yeast strains, C. quillermondiae; assay type: cell-based; conditions: C. quillermondiae clinical yeast strain 1
Summary of the method: as §1

Measured: Minimum inhibitory concentration

CC(C)C[C@@H](NC(=O)[C@@H](CCCCN)NC(=O)[C@@H](CCCCN)NC(=O)[C@@H](Cc1ccccc1)NC(=O)[C@@H](CC(C)C)NC(=O)[C@@H](Cc1c[nH]c2ccccc12)NC(=O)[C@@H](CCCNC(=N)N)NC(=O)[C@@H](Cc1c[nH]c2ccccc12)NC(=O)[C@@H](CCCCN)NC(=O)[C@@H](CCCNC(=N)N)NC(=O)[C@H](N)CCCCN)C(=O)O [Chain310D] (H-[dK][dR][dK][dW][dR][dW][dL][dF][dK][dK][dL]-OH)
64: [2]; Klebsiella pneumoniae clinical strain 1 | [2]; Klebsiella pneumoniae clinical strain 2 | [2]; Klebsiella pneumoniae clinical strain 4 | [6]; Enterobacter cloacae clinical strain 2 | [8]; Streptococcus pneumoniae clinical strain 5 | [11]; C. parapsilosis clinical yeast strain 1 | [11]; C. parapsilosis clinical yeast strain 2 | [11]; C. parapsilosis clinical yeast strain 3
>128: [4]; Serratia marcescens clinical strain 1 | [4]; Serratia marcescens clinical strain 2 | [4]; Serratia marcescens clinical strain 3 | [4]; Serratia marcescens clinical strain 4 | [4]; Serratia marcescens clinical strain 5 | [5]; Proteus mirabilis clinical strain 1 | [5]; Proteus mirabilis clinical strain 2 | [5]; Proteus mirabilis clinical strain 3 | [5]; Proteus mirabilis clinical strain 4 | [5]; Proteus mirabilis clinical strain 5
4: [1]; Escherichia coli clinical strain 1 | [3]; Pseudomonas aeruginosa clinical strain 5 | [7]; Staphylococcus aureus clinical strain 5
16: [1]; Escherichia coli clinical strain 3 | [1]; Escherichia coli clinical strain 4 | [1]; Escherichia coli clinical strain 5 | [3]; Pseudomonas aeruginosa clinical strain 2 | [3]; Pseudomonas aeruginosa clinical strain 3 | [6]; Enterobacter cloacae clinical strain 3 | [6]; Enterobacter cloacae clinical strain 5 | [7]; Staphylococcus aureus clinical strain 2 | [9]; Candida albicans clinical yeast strain 1 | [9]; Candida albicans clinical yeast strain 2 | [9]; Candida albicans clinical yeast strain 3 | [9]; Candida albicans clinical yeast strain 4 | [9]; Candida albicans clinical yeast strain 5 | [10]; C. glabrata clinical yeast strain 1 | [10]; C. glabrata clinical yeast strain 2 | [11]; C. parapsilosis clinical yeast strain 4
128: [2]; Klebsiella pneumoniae clinical strain 3 | [6]; Enterobacter cloacae clinical strain 1 | [8]; Streptococcus pneumoniae clinical strain 1 | [8]; Streptococcus pneumoniae clinical strain 2 | [8]; Streptococcus pneumoniae clinical strain 3 | [8]; Streptococcus pneumoniae clinical strain 4 | [10]; C. glabrata clinical yeast strain 3 | [10]; C. glabrata clinical yeast strain 4
8: [3]; Pseudomonas aeruginosa clinical strain 1 | [3]; Pseudomonas aeruginosa clinical strain 4 | [6]; Enterobacter cloacae clinical strain 4 | [7]; Staphylococcus aureus clinical strain 1 | [7]; Staphylococcus aureus clinical strain 3 | [7]; Staphylococcus aureus clinical strain 4 | [12]
32: [1]; Escherichia coli clinical strain 2 | [2]; Klebsiella pneumoniae clinical strain 5
